Data set [1] has as its target T1, Glycogen synthase kinase-3 beta (Homo sapiens, UniProt P49841). In words: biochemical. The class given is cell-based, Sf9.
For data set [2], the target named is Casein kinase I isoform epsilon (Homo sapiens, UniProt P49674). Nature of the data set: biochemical. The class given is cell-based, Sf9.
Data set [3] has as its target T2, Dual specificity protein kinase CLK1 (Homo sapiens, UniProt P49759). In words: biochemical. The format is cell-based, Sf9.
The target of data set [4] is T3, Dual specificity tyrosine-phosphorylation-regulated kinase 4 (Homo sapiens, UniProt Q9NR20).
T3 sequence (Q9NR20 whole entry): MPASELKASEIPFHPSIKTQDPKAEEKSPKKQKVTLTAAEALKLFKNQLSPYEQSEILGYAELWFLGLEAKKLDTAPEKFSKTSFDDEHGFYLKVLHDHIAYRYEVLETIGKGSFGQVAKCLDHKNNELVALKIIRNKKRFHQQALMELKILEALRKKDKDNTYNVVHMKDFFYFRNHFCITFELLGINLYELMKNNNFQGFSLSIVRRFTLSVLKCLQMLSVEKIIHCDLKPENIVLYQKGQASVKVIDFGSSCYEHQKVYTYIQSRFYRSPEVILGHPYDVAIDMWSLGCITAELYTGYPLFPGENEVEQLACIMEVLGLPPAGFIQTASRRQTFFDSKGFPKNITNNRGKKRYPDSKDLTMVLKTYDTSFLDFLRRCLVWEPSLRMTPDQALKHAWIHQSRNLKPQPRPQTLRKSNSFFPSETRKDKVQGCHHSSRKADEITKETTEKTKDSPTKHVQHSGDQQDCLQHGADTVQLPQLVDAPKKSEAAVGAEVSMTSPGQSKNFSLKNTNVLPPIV
Nature of the data set: biochemical. The class given is cell-based, Sf9.

Data set [5] in a line: in vitro. The following applies: mouse, ht-22.
Data set [6] addresses Dual specificity protein kinase CLK3 (Homo sapiens, UniProt P49761). Nature of the data set: biochemical. The format is cell-based, Sf9.
The target in data set [7] is Dual specificity protein kinase CLK2 (Homo sapiens, UniProt P49760). In words: biochemical.
Data set [8] deals with Cyclin-dependent kinase 5/CDK5 activator 1 (Homo sapiens, UniProt Q00535). In words: biochemical. The format is cell-based, Sf9.
For data set [9], the target named is T4, Dual specificity tyrosine-phosphorylation-regulated kinase 3 (Homo sapiens, UniProt O43781).
T4 sequence (O43781 whole entry): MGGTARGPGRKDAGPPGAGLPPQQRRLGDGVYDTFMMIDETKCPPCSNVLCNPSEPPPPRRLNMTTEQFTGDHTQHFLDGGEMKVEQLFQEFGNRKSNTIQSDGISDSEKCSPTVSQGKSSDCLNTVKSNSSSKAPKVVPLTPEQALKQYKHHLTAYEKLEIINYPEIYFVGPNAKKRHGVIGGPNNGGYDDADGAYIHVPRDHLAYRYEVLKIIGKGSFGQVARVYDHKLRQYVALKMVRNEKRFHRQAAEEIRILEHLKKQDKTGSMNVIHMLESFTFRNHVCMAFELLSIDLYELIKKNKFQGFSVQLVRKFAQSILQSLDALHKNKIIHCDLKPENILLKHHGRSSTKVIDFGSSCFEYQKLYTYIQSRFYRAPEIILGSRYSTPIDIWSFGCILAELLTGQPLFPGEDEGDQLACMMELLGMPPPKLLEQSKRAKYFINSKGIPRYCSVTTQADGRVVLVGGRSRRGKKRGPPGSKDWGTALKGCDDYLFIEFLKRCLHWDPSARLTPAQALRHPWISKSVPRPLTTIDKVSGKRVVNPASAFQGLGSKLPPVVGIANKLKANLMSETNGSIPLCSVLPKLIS
In words: biochemical. The class given is cell-based, Sf9.

The target in data set [10] is Dual specificity tyrosine-phosphorylation-regulated kinase 1A (Homo sapiens, UniProt Q13627). In words: biochemical.
Data set [11] addresses T5, Dual specificity tyrosine-phosphorylation-regulated kinase 2 (Homo sapiens, UniProt Q92630).
T5 sequence (Q92630 whole entry): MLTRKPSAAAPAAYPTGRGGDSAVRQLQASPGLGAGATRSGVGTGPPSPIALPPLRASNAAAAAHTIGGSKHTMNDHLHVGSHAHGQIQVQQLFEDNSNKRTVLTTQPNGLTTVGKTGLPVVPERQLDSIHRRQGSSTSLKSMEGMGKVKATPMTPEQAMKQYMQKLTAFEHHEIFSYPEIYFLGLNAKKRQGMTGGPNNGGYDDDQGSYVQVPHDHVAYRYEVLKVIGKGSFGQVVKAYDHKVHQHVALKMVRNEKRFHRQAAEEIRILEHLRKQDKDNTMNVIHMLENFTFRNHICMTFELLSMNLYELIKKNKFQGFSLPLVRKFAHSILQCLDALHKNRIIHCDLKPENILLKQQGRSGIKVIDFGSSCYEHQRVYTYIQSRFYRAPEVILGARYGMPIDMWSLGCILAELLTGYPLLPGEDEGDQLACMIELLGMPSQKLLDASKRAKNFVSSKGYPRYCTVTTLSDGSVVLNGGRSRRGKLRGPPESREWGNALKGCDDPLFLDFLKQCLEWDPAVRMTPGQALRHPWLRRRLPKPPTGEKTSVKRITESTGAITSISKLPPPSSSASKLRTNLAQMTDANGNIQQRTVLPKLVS
In words: biochemical. The class given is cell-based, Sf9.

Data set [12] concerns the target Dual specificity protein kinase CLK4 (Homo sapiens, UniProt Q9HAZ1). Nature of the data set: biochemical.
For data set [13], the target named is T1, Glycogen synthase kinase-3 beta.
Data set [14] deals with T2, Dual specificity protein kinase CLK1.
Data set [15] shares this target. In words: biochemical. The class given is cell-based, Sf9. The following applies: read-out: IC50.

pIC50, pKd: −log10 of the molar value.

For eleven compounds, IC50 and Kd results are on record in ChEMBL document CHEMBL5247649, “Comparative Efficacy and Selectivity of Pharmacological Inhibitors of DYRK and CLK Protein Kinases” (J Med Chem, 2023).

T1 sequence (P49841 whole entry, canonical isoform): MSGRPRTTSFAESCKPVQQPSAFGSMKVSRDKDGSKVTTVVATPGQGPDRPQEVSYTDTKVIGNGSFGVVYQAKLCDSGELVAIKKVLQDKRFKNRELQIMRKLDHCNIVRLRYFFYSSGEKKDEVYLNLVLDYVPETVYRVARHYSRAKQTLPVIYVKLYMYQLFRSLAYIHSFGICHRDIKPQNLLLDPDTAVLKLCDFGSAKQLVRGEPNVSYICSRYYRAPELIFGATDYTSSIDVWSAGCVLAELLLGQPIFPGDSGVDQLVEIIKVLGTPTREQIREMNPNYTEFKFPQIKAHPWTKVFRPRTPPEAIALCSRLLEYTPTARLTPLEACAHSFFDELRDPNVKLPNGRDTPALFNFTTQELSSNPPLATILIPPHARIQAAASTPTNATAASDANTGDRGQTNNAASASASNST
Sequence of Dual specificity protein kinase CLK3 (P49761 whole entry): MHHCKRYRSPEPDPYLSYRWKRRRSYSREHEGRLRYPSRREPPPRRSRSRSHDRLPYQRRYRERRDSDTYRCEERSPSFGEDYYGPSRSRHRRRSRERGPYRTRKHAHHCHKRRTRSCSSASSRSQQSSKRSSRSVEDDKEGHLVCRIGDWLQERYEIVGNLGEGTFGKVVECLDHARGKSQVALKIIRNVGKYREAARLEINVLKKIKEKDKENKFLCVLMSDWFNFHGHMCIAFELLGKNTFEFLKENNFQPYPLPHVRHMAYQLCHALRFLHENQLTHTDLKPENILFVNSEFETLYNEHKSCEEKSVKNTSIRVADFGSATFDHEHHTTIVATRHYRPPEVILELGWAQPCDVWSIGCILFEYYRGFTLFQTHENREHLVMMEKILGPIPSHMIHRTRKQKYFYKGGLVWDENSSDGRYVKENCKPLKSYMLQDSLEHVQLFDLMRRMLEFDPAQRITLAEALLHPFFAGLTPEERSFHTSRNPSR
Sequence of Cyclin-dependent kinase 5/CDK5 activator 1 (Q00535 whole entry): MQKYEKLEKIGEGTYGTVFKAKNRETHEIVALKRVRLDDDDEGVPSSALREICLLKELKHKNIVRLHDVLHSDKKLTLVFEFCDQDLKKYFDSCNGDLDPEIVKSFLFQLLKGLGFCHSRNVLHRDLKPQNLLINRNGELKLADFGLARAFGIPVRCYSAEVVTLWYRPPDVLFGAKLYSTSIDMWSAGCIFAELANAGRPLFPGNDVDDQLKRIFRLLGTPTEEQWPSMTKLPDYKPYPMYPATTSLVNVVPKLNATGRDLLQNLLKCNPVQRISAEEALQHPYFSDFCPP
Sequence of Cyclin-dependent kinase 5/CDK5 activator 1 (Q15078 whole entry, further chain): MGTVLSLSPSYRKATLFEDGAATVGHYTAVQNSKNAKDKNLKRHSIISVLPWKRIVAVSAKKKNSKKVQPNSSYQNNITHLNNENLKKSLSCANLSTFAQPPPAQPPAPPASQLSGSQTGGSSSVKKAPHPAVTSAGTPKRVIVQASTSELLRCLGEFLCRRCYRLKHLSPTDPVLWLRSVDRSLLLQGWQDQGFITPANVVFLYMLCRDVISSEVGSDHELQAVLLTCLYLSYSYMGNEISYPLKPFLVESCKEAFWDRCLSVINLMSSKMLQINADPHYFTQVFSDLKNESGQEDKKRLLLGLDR
T2 sequence (P49759 whole entry): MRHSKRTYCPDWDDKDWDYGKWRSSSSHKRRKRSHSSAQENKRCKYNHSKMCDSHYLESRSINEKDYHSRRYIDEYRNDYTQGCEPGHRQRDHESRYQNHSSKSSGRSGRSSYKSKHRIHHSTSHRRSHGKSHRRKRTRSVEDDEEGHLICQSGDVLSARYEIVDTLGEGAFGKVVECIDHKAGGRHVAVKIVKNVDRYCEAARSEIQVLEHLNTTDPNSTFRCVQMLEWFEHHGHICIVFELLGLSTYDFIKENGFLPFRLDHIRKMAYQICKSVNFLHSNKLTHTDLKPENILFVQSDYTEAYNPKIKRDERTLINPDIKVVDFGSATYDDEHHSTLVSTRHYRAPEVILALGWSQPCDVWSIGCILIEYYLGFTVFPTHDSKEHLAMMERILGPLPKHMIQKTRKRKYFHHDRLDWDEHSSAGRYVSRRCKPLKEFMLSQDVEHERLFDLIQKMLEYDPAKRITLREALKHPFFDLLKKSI
Sequence of Dual specificity protein kinase CLK2 (P49760 whole entry): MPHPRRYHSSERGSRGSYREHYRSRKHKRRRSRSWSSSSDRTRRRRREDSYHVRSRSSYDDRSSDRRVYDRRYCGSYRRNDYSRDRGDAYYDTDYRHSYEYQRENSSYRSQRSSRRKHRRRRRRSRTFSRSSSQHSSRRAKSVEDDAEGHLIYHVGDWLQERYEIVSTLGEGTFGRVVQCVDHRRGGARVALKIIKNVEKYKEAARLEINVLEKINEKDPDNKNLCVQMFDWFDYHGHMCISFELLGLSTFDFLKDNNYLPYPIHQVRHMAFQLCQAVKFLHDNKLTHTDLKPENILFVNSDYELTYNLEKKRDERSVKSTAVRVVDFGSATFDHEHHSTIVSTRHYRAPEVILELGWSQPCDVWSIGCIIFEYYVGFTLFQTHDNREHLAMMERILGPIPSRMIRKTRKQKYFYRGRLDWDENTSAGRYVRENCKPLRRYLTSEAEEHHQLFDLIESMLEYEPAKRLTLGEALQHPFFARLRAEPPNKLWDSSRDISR
Sequence of Dual specificity protein kinase CLK4 (Q9HAZ1 whole entry): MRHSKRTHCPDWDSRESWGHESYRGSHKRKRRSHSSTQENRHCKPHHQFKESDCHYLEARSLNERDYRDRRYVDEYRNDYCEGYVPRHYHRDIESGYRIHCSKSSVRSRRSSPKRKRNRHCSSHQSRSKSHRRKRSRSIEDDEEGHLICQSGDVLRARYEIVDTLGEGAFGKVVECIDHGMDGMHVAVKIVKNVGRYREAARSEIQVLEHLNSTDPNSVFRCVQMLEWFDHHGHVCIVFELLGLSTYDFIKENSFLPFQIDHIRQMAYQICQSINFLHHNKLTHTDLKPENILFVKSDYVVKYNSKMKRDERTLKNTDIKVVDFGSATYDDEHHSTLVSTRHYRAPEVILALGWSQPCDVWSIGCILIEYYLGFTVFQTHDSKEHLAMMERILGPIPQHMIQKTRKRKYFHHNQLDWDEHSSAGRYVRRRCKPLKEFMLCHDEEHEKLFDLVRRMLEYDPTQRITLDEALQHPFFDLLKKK
Sequence of Casein kinase I isoform epsilon (P49674 whole entry, canonical isoform): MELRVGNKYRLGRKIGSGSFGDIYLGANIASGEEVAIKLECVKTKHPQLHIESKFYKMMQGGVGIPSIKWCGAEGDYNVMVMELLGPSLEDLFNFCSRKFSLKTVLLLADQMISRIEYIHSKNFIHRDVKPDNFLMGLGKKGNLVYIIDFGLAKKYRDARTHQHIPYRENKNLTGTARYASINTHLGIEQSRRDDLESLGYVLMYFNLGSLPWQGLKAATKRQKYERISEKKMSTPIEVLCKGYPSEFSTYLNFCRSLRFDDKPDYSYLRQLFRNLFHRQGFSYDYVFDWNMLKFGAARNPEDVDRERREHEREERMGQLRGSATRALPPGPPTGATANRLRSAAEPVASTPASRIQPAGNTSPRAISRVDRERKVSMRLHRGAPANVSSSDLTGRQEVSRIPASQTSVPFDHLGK

In general, pIC50 refers to the negative decadic logarithm of the IC50, by convention in mol/L. Usually IC50 stands for the point on the concentration scale where inhibition reaches its midpoint. As to `CC(=O)c1nccc2c1[nH]c1ccccc12`, the pIC50 in data set [1], in data set [2], in data set [3], in data set [4], in data set [6] and in [7] was < 5.00 each time. Also, the pIC50 in data set [8], in [9], in [10], in data set [11] and in data set [12] was < 5.00 each time. In addition, the IC50 at 48 h in data set [5] is > 100000 nM.

The pKd is the negative decadic logarithm of the Kd, by convention in mol/L. Consider `Cc1ccc([N+](=O)[O-])cc1S(=O)(=O)N(C)/N=C/c1cnc2ccc(Br)cn12`, for which the negative-log IC50 (pIC50) in [1] is 7.75; in data set [2] it was 6.39; in data set [3] it was 7.73; in data set [4], 5.59; in data set [6], 7.92; in data set [7], 8.96. Also, the pIC50 in data set [8] was 7.61; in data set [9] it was 7.98; in data set [11] it was 6.93; in data set [15] it was 7.51; in [12], 8.16. Further, the pKd in data set [13] is 8.41; in data set [14], 10.25. This compound showed an IC50 at 48 h in data set [5] of 160 nM.

`Oc1ccc(-c2cnc3[nH]cc(-c4ccc(F)cc4)c3c2)cc1O`: the pIC50 was < 5.00 in [1]; < 5.00 in [2]; 6.24 in data set [3]; < 5.00 in [4]; < 5.00 in [6]; 5.70 in data set [7]. Further, the pIC50 was < 5.00 in data set [8]; < 5.00 in data set [9]; 5.48 in data set [11]; 6.75 in data set [15]; 6.05 in [12]. The pKd in data set [13] was < 5.00; in [14], 7.15. The same compound registered an IC50 at 48 h in data set [5] of 9000 nM.

For `Cc1cccc(N(C)c2nccc(-c3cnn4ncccc34)n2)c1`, the pIC50 was < 5.00 in data set [1]; < 5.00 in data set [2]; 6.90 in data set [3]; < 5.00 in data set [4]; < 5.00 in data set [6]; 6.57 in data set [7]. Besides, the pIC50 was < 5.00 in [8]; < 5.00 in data set [9]; 6.36 in data set [10]; < 5.00 in [11]; 7.04 in data set [12]. This compound also had an IC50 at 48 h in [5] of 30100 nM.

Consider `Cn1cc(-c2ccc3occ(-c4cccc(-c5ccncc5)c4)c3n2)cn1`, for which the pIC50 is 5.54 in data set [1]; < 5.00 in data set [2]; < 5.00 in data set [4]; < 5.00 in data set [8]; < 5.00 in [9]; 5.94 in data set [10]. In addition, the pIC50 is 5.52 in data set [11] and 7.08 in data set [12]. Further, in data set [5], the half-inhibitory concentration (IC50) at 48 h amounted to 2600 nM.

For the compound `Oc1ccc(-c2n[nH]c3ncc(-c4ccc(O)c(O)c4)cc23)cc1`, the negative logarithm of the IC50 (pIC50) is 6.80 in data set [1]; 7.41 in data set [2]; 7.98 in data set [3]; 7.57 in data set [4]; 6.68 in [6]; 7.84 in data set [7]. Moreover, the pIC50 in data set [8] is 7.42; in data set [9], 7.14; in data set [11] it was 7.48; in data set [15], 7.42; in data set [12], 8.33. In addition, the values for the pKd in data set [13] and in data set [14] were 6.59 and 8.88, respectively. This compound also gave an IC50 at 48 h in data set [5] of 5500 nM.

Consider `O=C1NC(=Nc2c(Cl)cccc2Cl)S/C1=C\c1ccc2nccnc2c1`, for which the pIC50 was 5.51 in data set [1]; 5.75 in data set [2]; 7.68 in data set [3]; 6.97 in data set [4]; 7.03 in data set [6]; 7.02 in [7]. In addition, the negative logarithm of the IC50 (pIC50) in data set [8] is < 5.00; in data set [9] it was 7.64; in [11] it was 7.81; in data set [15] it was 7.87; in [12], 7.85. Also, the pKd in data set [13] was 6.03; in data set [14], 9.40. The same compound returned an IC50 at 48 h in data set [5] of 27800 nM.

Consider `Cc1cc(C(=O)NC2Nc3cccc(C)c3N2[C@H]2CCCCN(C(=O)/C=C/CN(C)C)C2)ccn1` (stereo partly specified), for which the pIC50 in data set [1] was 5.28; in [2], < 5.00; in data set [3], < 5.00; in [4] it was < 5.00; in data set [6], < 5.00; in data set [7], 5.22. For the same compound, the pIC50 in data set [8], in data set [9], in [10], in data set [11] and in data set [12] was < 5.00 in each case. For the same compound, the half-maximal inhibitory concentration (IC50) at 48 h in data set [5] amounted to 60000 nM.

Take `CCNc1cc(Nc2ccc(C(=O)N3CCC(N4CCOCC4)CC3)cc2OC)nc2[nH]cc(C(F)(F)F)c12`: the pIC50 was < 5.00 in [1]; 5.10 in [2]; 7.15 in [3]; < 5.00 in data set [4]; 5.69 in data set [6]; 7.39 in data set [7]. Besides, the pIC50 was < 5.00 in data set [8]; 5.15 in [9]; < 5.00 in data set [11]; 7.03 in data set [15]; 7.68 in data set [12]. In addition, the pKd in data set [13] was < 5.00; in [14] it was 8.86. In data set [5], this compound yielded an IC50 at 48 h of 19900 nM.

In the case of `O=C1Nc2cc(S(=O)(=O)Cc3c(Cl)cccc3Cl)ccc2S/C1=C\c1ccc(O)c([N+](=O)[O-])c1`, the negative logarithm of the IC50 (pIC50) in data set [1] is < 5.00; in data set [2], 5.36; in data set [3], 5.22; in data set [4] it was < 5.00; in data set [6] it was < 5.00; in [7], < 5.00. The pIC50 was < 5.00 in data set [8]; < 5.00 in data set [9]; 5.51 in [10]; 5.76 in [11]; < 5.00 in data set [12]. Besides, it took 1000 nM to reach half-maximal inhibition in data set [5] (IC50 at 48 h).

Take `COc1cc(/C=C/C(=O)CC(=O)/C=C/c2ccc(O)c(OC)c2)ccc1O` [CURCUMIN]: the negative logarithm of the IC50 (pIC50) in [1], in data set [2], in data set [3], in data set [4], in data set [6] and in [7] was < 5.00 each time. The pIC50 is < 5.00 in [8]; 5.37 in data set [9]; 5.98 in data set [11]; 5.31 in data set [15]; 5.01 in data set [12]. Besides, the pKd in data set [13] was < 5.00; in [14], < 6.00. Also, in [5], the IC50 at 48 h came out at 52400 nM.
